Key:
[1] = system: tRNA^phe (yeast) (RNA, tRNA) GCGGAUUUAGCUCAGUUGGGAGAGCGCCAGACUGAAGAUCUGGAGGUCCUGUGUUCGAUCCACAGAAUUCGCACCA; test: absorbance titration, Scatchard, McGhee-von Hippel cooperative fit; details: 10 mM Na+; citrate-phosphate, pH 7.1, 20 °C; overall cooperative constant; tRNA in nucleotide phosphates; per base
[2] = system: tRNA^phe (yeast) (RNA, tRNA) GCGGAUUUAGCUCAGUUGGGAGAGCGCCAGACUGAAGAUCUGGAGGUCCUGUGUUCGAUCCACAGAAUUCGCACCA; test: fluorescence titration, Benesi-Hildebrand; details: 10 mM Na+; citrate-phosphate, pH 7.1, 20 °C; apparent; tRNA in nucleotide phosphates; per base
[3] = system: tRNA^phe (yeast) (RNA, tRNA) GCGGAUUUAGCUCAGUUGGGAGAGCGCCAGACUGAAGAUCUGGAGGUCCUGUGUUCGAUCCACAGAAUUCGCACCA; test: UV melting, 260 nm; details: 10 mM Na+; citrate-phosphate, pH 7.0; 50 µM tRNA nucleotides; saturating alkaloid; average Tm 50 °C alone; per base
[4] = system: tRNA^phe (yeast) (RNA, tRNA) GCGGAUUUAGCUCAGUUGGGAGAGCGCCAGACUGAAGAUCUGGAGGUCCUGUGUUCGAUCCACAGAAUUCGCACCA; test: ITC, single-site fit; details: 10 mM Na+; citrate-phosphate, pH 7.0, 20 °C; tRNA concentration in nucleotide phosphates; per base
[5] = system: tRNA^phe (yeast) (RNA, tRNA) GCGGAUUUAGCUCAGUUGGGAGAGCGCCAGACUGAAGAUCUGGAGGUCCUGUGUUCGAUCCACAGAAUUCGCACCA; test: fluorescence titration, Scatchard, McGhee-von Hippel cooperative fit; details: 10 mM Na+; citrate-phosphate, pH 7.1, 20 °C; overall cooperative constant; tRNA in nucleotide phosphates; per base
[6] = system: tRNA^phe (yeast) (RNA, tRNA) GCGGAUUUAGCUCAGUUGGGAGAGCGCCAGACUGAAGAUCUGGAGGUCCUGUGUUCGAUCCACAGAAUUCGCACCA; test: absorbance titration, Benesi-Hildebrand; details: 10 mM Na+; citrate-phosphate, pH 7.1, 20 °C; apparent; tRNA in nucleotide phosphates; per base
[7] = system: tRNA^phe (yeast) (RNA, tRNA) GCGGAUUUAGCUCAGUUGGGAGAGCGCCAGACUGAAGAUCUGGAGGUCCUGUGUUCGAUCCACAGAAUUCGCACCA; test: ITC; details: 10 mM Na+; citrate-phosphate, pH 7.0, 20 °C; only background heats, binding negligible

| SMILES | Kiω [1] | KBH [2] | ΔTm [3] | Ka [4] | Kiω [5] | KBH [6] | binding [7] |
| --- | --- | --- | --- | --- | --- | --- | --- |
| COc1ccc2cc3[n+](cc2c1OCC(=O)NCCc1ccccc1)CCc1cc2c(cc1-3)OCO2 | 922000 M⁻¹ | 889000 M⁻¹ | 8.0 °C | 8.20 ± 0.04 × 10^5 M^-1 | 941000 M⁻¹ | 874000 M⁻¹ |  |
| COc1ccc2cc3[n+](cc2c1OCC(=O)NCc1ccccc1)CCc1cc2c(cc1-3)OCO2 | 640000 M⁻¹ | 644000 M⁻¹ | 7.0 °C | 7.17 ± 0.03 × 10^5 M^-1 | 658000 M⁻¹ | 613000 M⁻¹ |  |

The remaining lines, values ahead:

| Kiω [1] | KBH [2] | ΔTm [3] | Ka [4] | Kiω [5] | KBH [6] | binding [7] | SMILES |
| --- | --- | --- | --- | --- | --- | --- | --- |
| 169000 M⁻¹ | 122000 M⁻¹ | 4.5 °C | 0.86 ± 0.01 × 10^5 M^-1 | 177000 M⁻¹ | 114000 M⁻¹ |  | COc1ccc2cc3[n+](cc2c1OC)CCc1cc2c(cc1-3)OCO2 |
| 434000 M⁻¹ | 404000 M⁻¹ | 6.5 °C | 4.67 ± 0.03 × 10^5 M^-1 | 427000 M⁻¹ | 425000 M⁻¹ |  | COc1ccc2cc3[n+](cc2c1OCC(=O)Nc1ccccc1)CCc1cc2c(cc1-3)OCO2 |
|  | 4200 M⁻¹ | 2.0 °C |  |  | 4300 M⁻¹ | weak | COc1ccc2cc3[n+](cc2c1O)CCc1cc2c(cc1-3)OCO2 |

Source: publication PMC3602459 (2013)
